Patent publication US20240246964A1 (Arbutus Biopharma Corporation, priority 2021, published 2024)

Assays:
human PD-L1 = human PD-L1 (Homo sapiens (Human), UniProt Q9NZQ7); test: T cell activation luciferase reporter cell culture system (T Cell Activation Assay); assay type: cell-based; settings: luciferase reporter assay; PD-L1 aAPC/CHO-K1 cells with PD-1 effector Jurkat T cells
[1] = molecular target: PD-L1 His protein / PD-1 Fc protein (Homo sapiens (Human), UniProt Q9NZQ7); test: HTRF Assay (PD-1/PD-L1 interaction); assay type: binding; settings: PD-L1 His 6 nM, PD-1 Fc 6 nM
Chain of PD-L1 His protein / PD-1 Fc protein (Q9NZQ7 19-238): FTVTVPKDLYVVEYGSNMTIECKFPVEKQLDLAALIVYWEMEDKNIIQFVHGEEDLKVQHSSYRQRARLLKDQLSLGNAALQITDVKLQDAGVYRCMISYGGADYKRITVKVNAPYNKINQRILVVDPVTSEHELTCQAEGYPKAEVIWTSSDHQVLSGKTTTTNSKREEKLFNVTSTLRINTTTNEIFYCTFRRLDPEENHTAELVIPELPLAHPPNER

Chain of human PD-L1 (Q9NZQ7 19-290): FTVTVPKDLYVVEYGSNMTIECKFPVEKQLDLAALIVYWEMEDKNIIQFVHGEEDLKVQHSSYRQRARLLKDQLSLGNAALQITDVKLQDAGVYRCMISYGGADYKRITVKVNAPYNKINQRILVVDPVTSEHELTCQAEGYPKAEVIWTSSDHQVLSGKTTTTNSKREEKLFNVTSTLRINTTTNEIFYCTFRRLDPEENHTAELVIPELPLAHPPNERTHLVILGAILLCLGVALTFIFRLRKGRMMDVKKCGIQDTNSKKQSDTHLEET

**Q.** For `CNCc1ccc(-c2nccc(-c3cccc(-c4ccc(CNC)c(OC)n4)c3Cl)c2Cl)cc1F` [Example 283, 1-(6-(2-Chloro-3-(3-chloro-2-(3-fluoro-4-((methylamino)methyl)phenyl)pyridin-4-yl)phenyl)-2-methoxypyridin-3-yl)-N-methylmethanamine], which EC50 (human PD-L1) is on record?
**A.** 36.7 nM

**Q.** And the IC50 [1]?
**A.** 3.94 nM

**Q.** For `COc1nc(-c2cccc(-c3ccnc(-c4ccc(CN5CC6(CNC(=O)C6)C5)c(F)c4)c3Cl)c2Cl)ccc1CN1CC2(CNC(=O)C2)C1` [Example 284, 2-((6-(2-Chloro-3-(3-chloro-2-(3-fluoro-4-((7-oxo-2,6-diazaspiro[3.4]octan-2-yl)methyl)phenyl)pyridin-4-yl)phenyl)-2-methoxypyridin-3-yl)methyl)-2,6-diazaspiro[3.4]octan-7-one], which EC50 (human PD-L1) is on record?
**A.** 62.4 nM

**Q.** What about the IC50 [1] of the same molecule?
**A.** 2.81 nM

**Q.** Which results are given for `COc1cc(-c2nccc(-c3cccc(-c4ccc(CNC5CCN(C(C)=O)CC5)c(OC)n4)c3Cl)c2Cl)cc(F)c1CNC1CCN(C(C)=O)CC1` [Example 285, 1-(4-(((6-(3-(2-(4-(((1-Acetylpiperidin-4-yl)amino)methyl)-3-fluoro-5-methoxyphenyl)-3-chloropyridin-4-yl)-2-chlorophenyl)-2-methoxypyridin-3-yl)methyl)amino)piperidin-1-yl)ethan-1-one]?
**A.** EC50 (human PD-L1): 14.2 nM; IC50 [1]: 0.716 nM

**Q.** How did the EC50 (human PD-L1) turn out when `CNCc1ccc(-c2cccc(-c3ccnc(-c4cc(F)c(CNC)c(OC)c4)c3Cl)c2Cl)nc1OC` [Example 286, 1-(6-(2-Chloro-3-(3-chloro-2-(3-fluoro-5-methoxy-4-((methylamino)methyl)phenyl)pyridin-4-yl)phenyl)-2-methoxypyridin-3-yl)-N-methylmethanamine] was run?
**A.** 15.4 nM

**Q.** And the IC50 [1]?
**A.** 5.16 nM

**Q.** Which EC50 (human PD-L1) does the source give for `COc1cc(-c2nccc(-c3cccc(-c4ccc(CN5CC6(CNC(=O)C6)C5)c(OC)n4)c3Cl)c2Cl)cc(F)c1CN1CC2(CNC(=O)C2)C1` [Example 287, 2-((6-(2-Chloro-3-(3-chloro-2-(3-fluoro-5-methoxy-4-((7-oxo-2,6-diazaspiro[3.4]octan-2-yl)methyl)phenyl)pyridin-4-yl)phenyl)-2-methoxypyridin-3-yl)methyl)-2,6-diazaspiro[3.4]octan-7-one] here?
**A.** 16.4 nM

**Q.** What about the IC50 [1] of the same molecule?
**A.** 4.67 nM

**Q.** Which results are given for `COc1nc(-c2cccc(-c3ccnc(-c4ccc5c(CN6CC7(CNC(=O)C7)C6)nn(C)c5c4)c3Cl)c2Cl)ccc1CNC[C@@H]1CCC(=O)N1` [Example 288, (S)-2-((6-(3-Chloro-4-(2-chloro-3-(6-methoxy-5-((((5-oxopyrrolidin-2-yl)methyl)amino)methyl)pyridin-2-yl)phenyl)pyridin-2-yl)-1-methyl-1H-indazol-3-yl)methyl)-2,6-diazaspiro[3.4]octan-7-one]?
**A.** EC50 (human PD-L1): 52.7 nM; IC50 [1]: 2.33 nM

**Q.** `COc1nc(-c2cccc(-c3ccnc(-c4cc(Cl)c5c(c4)CCN(CC4CCN(C(C)=O)CC4)C5)c3Cl)c2Cl)ccc1CNC[C@@H]1CCC(=O)N1` [Example 289, (S)-5-((((6-(3-(2-(2-((1-Acetylpiperidin-4-yl)methyl)-8-chloro-1,2,3,4-tetrahydroisoquinolin-6-yl)-3-chloropyridin-4-yl)-2-chlorophenyl)-2-methoxypyridin-3-yl)methyl)amino)methyl)pyrrolidin-2-one] was tested. Which EC50 (human PD-L1) did it give?
**A.** 87.6 nM

**Q.** What about the IC50 [1] of the same molecule?
**A.** 2.95 nM

**Q.** Which results are given for `COc1cc(-c2nccc(-c3cccc(-c4cc5c(cn4)C(=O)N(CCNC[C@@H]4CCC(=O)N4)C5)c3Cl)c2Cl)ccc1CNC[C@@H]1CCC(=O)N1` [Example 290, 6-(2-Chloro-3-(3-chloro-2-(3-methoxy-4-(((((S)-5-oxopyrrolidin-2-yl)methyl)amino)methyl)phenyl)pyridin-4-yl)phenyl)-2-(2-((((S)-5-oxopyrrolidin-2-yl)methyl)amino)ethyl)-1,2-dihydro-3H-pyrrolo[3,4-c]pyridin-3-one]?
**A.** EC50 (human PD-L1): 551 nM; IC50 [1]: 3.03 nM
